In series [1] the test system is patients with confirmed, symptomatic DVT or PE treated for 6 months with a VKA or idraparinux. The series is described as follows: Double-blind, placebo-controlled study of 6 months extended thromboprophylaxis: symptomatic recurrent VTE. Format: in vivo. On the procedure: (§1) A double-blind, placebo-controlled study evaluated patients who had completed 6 months of initial treatment for deep venous thrombosis (hereafter “DVT”) or pulmonary embolism (hereafter “PE”) and who were then randomly assigned to receive an additional 6 months of prophylaxis with idraparinux. The efficacy of this method of thromboprophylaxis was evaluated in these patients.
Eligible patients were those aged above or equal to 18 years, with confirmed, symptomatic DVT or PE and who had been treated for 6 months with a VKA (acenocoumarol or warfarin), either in previous van Gogh studies (see The van Gogh Investigators, N. Engl. J. Med., 2007, 357, 1094-104) or outside these studies, or with idraparinux (in van Gogh studies).
The diagnostic criteria for DVT were a calf trifurcation or a more proximal vein that were noncompressible on ultrasonography or an intraluminal filling defect on venography. For PE, the diagnostic criteria were an intraluminal filling defect in subsegmental or more proximal pulmonary arteries on spiral computed tomography (CT) or conventional pulmonary angiography, a high-probability finding on a ventilation-perfusion lung scan, or a nondiagnostic finding on a lung scan with objectively documented DVT (H. R. Büller et al., Ann. Intern. Med., 2004, 140, 867-73; The Matisse Investigators, N. Engl. J. Med., 2003, 349, 1695-702).
Patients were ineligible if they met one or more of the following criteria: an indication to continue anticoagulant therapy for the index DVT or PE beyond 6 months, other indications for prophylaxis with a VKA, pregnancy or breast-feeding, a creatinine clearance of less than 10 ml per minute, severe hepatic disease, bacterial endocarditis, active bleeding or a high risk of bleeding, uncontrolled hypertension (systolic blood pressure above 180 mm Hg or diastolic blood pressure above 110 mm Hg), or a life expectancy of less than 3 months.
Patients were randomized, with stratification according to study center and to the anticoagulant treatment received in the 6 months before randomization (idraparinux within the van Gogh studies or VKA within or outside the van Gogh studies). Randomization was to be performed not more than 1 hour before the administration of the first dose of the study drug.
(§2) Patients received a once-weekly subcutaneous dose of 2.5 mg of idraparinux or placebo with an identical appearance for 6 months (26 injections). In patients who had received idraparinux before randomization, the first dose of idraparinux or placebo was given 6 to 8 days after the last injection of the drug. In patients who had received a VKA before randomization, the first dose was given when the international normalized ratio (INR) was 3.0 or less. For patients with a creatinine clearance of less than 30 ml/min., the weekly idraparinux dose was 1.5 mg, with a first dose of 2.5 mg in patients who had received a VKA before randomization.
All patients were contacted after 1 week and at 3 and 6 months. […] At each contact, symptoms and signs of recurrent VTE were investigated.
All suspected outcome events were reviewed and classified by a central adjudication committee, whose members were unaware of study-group assignment.
The primary efficacy outcome was the incidence of symptomatic recurrence of VTE, defined as objectively documented recurrent PE, DVT or death attributed to PE. A diagnosis of recurrent VTE was accepted in the absence of an adequate objective test result if the investigator had treated the patient with therapeutic doses of heparin for more than 2 days or with a vena cava filter, thrombectomy or thrombolysis, or if recurrent VTE could not be ruled out. […]

The test system is the same in series [2]. The series can be described thus: Same study, principal safety outcome: major bleeding. The class given is in vivo. On the procedure:
as §1, §2
The principal safety outcome was major bleeding. […]
Analysis of the primary safety outcome, the incidence of major bleeding at 6 months, was performed with the use of the Mantel-Haenszel test, stratified according to the previous treatment. The effect of initial, prerandomization treatment on efficacy and safety was also analyzed. […]

The mark [3] stands for this setting: idraparinux group, month 6 after randomization, counted in most severe category.

Take `CO[C@H]1O[C@H](COS(=O)(=O)O)[C@@H](O[C@@H]2O[C@@H](C(=O)O)[C@@H](O[C@H]3O[C@H](COS(=O)(=O)O)[C@@H](O[C@@H]4O[C@H](C(=O)O)[C@@H](O[C@H]5O[C@H](COS(=O)(=O)O)[C@@H](OC)[C@H](OC)[C@H]5OC)[C@H](OC)[C@H]4OC)[C@H](OS(=O)(=O)O)[C@H]3OS(=O)(=O)O)[C@H](OC)[C@H]2OC)[C@H](OS(=O)(=O)O)[C@H]1OS(=O)(=O)O` [Idraparinux, idraparinux]: the “symptomatic, objectively confirmed VTE (frequency of recurrent thromboembolism)” value in series [1] (idraparinux group, 6 of 594 patients, during the 6 months of randomly assigned treatment) is given as 1.0%. For the same molecule, the “recurrent VTE” value in series [1] (idraparinux group, 7 patients, further 6-month observation period after end of the additional 6 months of thromboprophylaxis, P=0.21 vs placebo) is listed as 1.2%. Also, in series [1] (idraparinux group, 1 year after randomization, P=0.002 vs placebo), the “cumulative incidence of recurrent VTE (Kaplan-Meier)” value worked out at 1.7%. Besides, the “Type of recurrent event: DVT only” value in series [1] (setting [3]) is on record as 3 number of patients. Further, the “Type of recurrent event: PE fatal” value in series [1] (setting [3]) is given as 2 number of patients. For the same molecule, the “Type of recurrent event: PE non fatal” value in series [1] (setting [3]) is given as 1 number of patients. In addition, in series [1] (idraparinux vs placebo, 6 months, 95% CI 33.5 to 88.8, P=0.002), the “reduction in the relative risk of recurrent VTE” value is reported as 72.7%. The “Recurrent VTE, Odds Ratio (95% CI)” value in series [1] (idraparinux vs placebo, month 6 after randomization, all patients, adjusted according to treatment history, P 0.002) is reported as 0.27 (0.11-0.66); in series [1] (idraparinux vs placebo, treatment before randomization: VKA outside study, month 6, P 0.004), 0.09 (0.01-0.69); in series [1] (idraparinux vs placebo, treatment before randomization: VKA within study, month 6, P 0.02) it was 0.20 (0.04-0.92); in series [1] (idraparinux vs placebo, treatment received before randomization: VKA, month 6, P <0.001) it was 0.14 (0.04-0.48); in series [1] (idraparinux vs placebo, treatment received before randomization: idraparinux, month 6, P 0.68), 1.58 (0.26-9.55). The “cumulative incidence of recurrent thromboembolism by treatment received before randomization (FIG. 1)” value in series [1] (placebo group, entire year after randomization, 268 patients who had received idraparinux in the 6 months before randomization) is reported as “lowest”. In addition, the “frequency of recurrence (6-month recurrence rate) after discontinuation” value in series [1] (placebo group, substance = treatment received for 6 months before randomization) is listed as “less than 1%”. The major hemorrhage in series [2] (idraparinux group, 6 months of treatment, placebo 0%, P<0.001) was 1.9%. Also, the “major bleedings after discontinuation” value in series [2] (placebo group, patients who first received idraparinux, 6 months) is given as “without major bleedings”.

The values are drawn from patent publication US20100062997A1, “USE OF IDRAPARINUX FOR EXTENDED PROPHYLAXIS OF THROMBOEMBOLISM” (SANOFI-AVENTIS, priority 2008, published 2010).
